Consider one molecule from patent US10039729B2, “Use of kukoamine A and kukoamine B” (Tianjin Chase Sun Pharmaceutical Co., Ltd., priority 2010, dated 2018).

Data set [1] deals with RAW264.7 cells. The data set can be described thus: Binding and cellular internalization of LPS and CpG DNA to RAW264.7 cells (confocal microscopy). It counts as cell-based, murine. To be noted: KB 50, 100 and 200 μM, dose-dependent. Here is the method: 21.1 Methods: RAW264.7 cells were cultured in 20 mm cell culture dishes for confocal microscopy applications, and diluted to 5×10^5/ml in DMEM supplemented with 10% (v/v) NCS; 1 ml of the above suspension was transferred into each cell culture dishes and cultured at 37° C. in a 5% CO2 humidified incubator for 4 h; for the purpose of experiment three groups were established, medium group, stimulation group and KB treatment group; the concentration and loading patterns of each group were consistent with Embodiment 12; the cells were then fixed with 4% paraform for 10 min after 30 min of culture, and washed thrice with PBS; nucleus were stained with DAPI (100 ng·mL^−1) for 2 min, washed with PBS thrice, mounted with a solution of 50% glycerol and 50% PBS, and stored in dark place until intensity and distribution of fluorescence of LPS and CpG DNA on RAW264.7 cells surface were observed under a confocal microscopy.

Data set [2] deals with murine peritoneal macrophages. The data set can be described thus: Vitality of murine peritoneal macrophages (MTT method). It counts as cell-based. To be noted: KB or KB plus LPS or CpG DNA; 24 h. Here is the method: (2) Influence on vitality of murine peritoneal macrophages: Experiment methods are as above. Influences of the combination of KB with LPS or CpG DNA on vitality of murine peritoneal macrophages were assayed.

Data set [3] concerns RAW264.7 cells. The experiment in a line: Semi-quantitative RT-PCR of TLR4, TLR9, MyD88 and western blot of NF-κB p65 in RAW264.7 cells. It counts as cell-based, murine. To be noted: KB 200 μM. The protocol: Reaction mixtures were added into 0.2 ml PCR tubes. The reaction mixture included 1 μl cDNA, 10.0 μl 2×Taq Master Mix, 1 μl upstream primer (10 μM), 1 μl downstream primer (10 μM) and 7 μl RNase-free H2O. PCR programs are as follows:
Finally, the PCR products were detected by agarose gel electrophoresis; 1% agarose gel was prepared and cast; 5 μl PCR products of each tube were loaded, electrophoresed at 100 v for 30 min; then gel was took out and scanned; the images were analysed by Quantity One software.
(2) Inhibition of KB on activation of NF-κB p65 in RAW264.7 cells induced by LPS and CpG DNA: Methods are as above; nucleoprotein extraction continued to be incubated for 1 h after sample loading; then, NF-κB p65 in it was assayed using westernblot; the procedure of nucleoprotein extraction and westernblot were consistent with embodiment 23.
On the technique in general: A western blot detects proteins with antibodies after separation by electrophoresis.

The test system of data set [4] is mice challenged by heat-killed Escherichia coli. The data set can be described thus: Protection on mice challenged by lethal dose of heat-killed Escherichia coli. It counts as in vivo, Kunming mice. Here is the method:
Preparation of heat-killed Escherichia coli (E. coli) ATCC 35218: Bacteria culture was performed according to Clinical Laboratory Procedures. Single bacterial colony of E. coli from LB agar plates were picked and transferred into 10 mL sterile liquid of LB broth using a sterile inoculating loop, and cultivated at 37° C. in a shaker (250 rpm). After medium become turbid, these culture medium were then transferred to 2000 mL of fresh LB medium and cultivated at 37° C. in a shaker (250 rpm) for 12 h. The suspension was collected, transferred into 1000 ml centrifuge tube, and centrifuged at 5000 rpm for 15 min. The supernatant was discarded. The bacteria were collected, washed and resuspended into sterile saline, and then centrifuged again under the same condition. Above-mentioned process was repeated thrice. The bacteria pellet was resuspended with a pipet in 50 ml sterile saline, transferred into 100 ml saline bottle, and boiled in electric furnace for 30 min. Then the suspension of heat-killed Escherichia coli was obtained. The suspension of E. coli was diluted by 100 fold, and measured OD value at 600 nm on nucleic acid protein analyzer. Conversion was made according to the regression equation of OD value and concentration, and the suspension was diluted according to the conversion result. Then the operating fluids for mice injection were obtained.
Observation of CL-4b protection on mice challenged by heat-killed Escherichia coli: A total of […] Kunming mice (18˜20 g), half male and half female, were divided into three groups randomly: CL-4b control group, heat-killed E. coli group and CL-4b treatment group. Each group has 10 mice, half male and half female. CL-4b control group was injected with CL-4b (60 mg/kg) and sterile saline; heat-killed E. coli group was injected with heat-killed Escherichia coli (1.0×10^10 CFU/ml) and sterile saline; CL-4b treatment group was injected with CL-4 ([…]) at 10 min after heat-killed E. coli injection. The injection volume of each solution was 200 μl per 20 g body weight via tail vein. […]
(1) Single dose experiment: Experiment 1: A total of 40 Kunming mice (18-20 g), half male and half female, were divided into two groups randomly, heat-killed E. coli control group and KB (30 mg/kg) treatment group; each group has 20 mice; after animal weighing, heat-killed E. coli group was injected with heat-killed Escherichia coli (200 μl per 20 g body weight) and sterile saline (200 μl per 20 g body weight); KB treatment group was injected with KB (200 μl per 20 g body weight) at 5 min after heat-killed E. coli was injected; the injection doses of heat-killed E. coli were 1.0×10^11 CFU/kg, and injection doses of KB were 30 mg/kg. […]

Where [5] appears, read: single dose KB 60 mg/kg, E. coli 1.0×10^11 CFU/kg.

For `NCCCN(CCCCNCCCNC(=O)CCc1ccc(O)c(O)c1)C(=O)CCc1ccc(O)c(O)c1` [KB, Kukoamine B], in the data set with RAW264.7 cells [1] (5-FAM-CpG DNA 10 μg/ml), the “green fluorescence intensity of 5-FAM (CpG DNA) on the surface of and inside RAW264.7 cells” value is recorded as “significantly weakened”. For the same molecule, in the data set with RAW264.7 cells [1] (FITC-LPS 200 ng/ml), the “green fluorescence intensity of FITC (LPS) on the surface of and inside RAW264.7 cells” value is “significantly weakened”. Besides, in data set [2], the “vitality of murine peritoneal macrophages” value is reported as “The same result was also obtained”. In the data set on RAW264.7 cells [3] (4 h, semi-quantitative RT-PCR), the “up-regulated expression of TLR4, TLR9 and MyD88 stimulated by LPS and CpG DNA” value is listed as “inhibited up-regulated expression”. The “up-regulation of NF-κB p65 in RAW264.7 cell nucleus induced by LPS and CpG DNA” value in the data set with RAW264.7 cells [3] (LPS 100 ng/ml, CpG DNA 10 μg/ml, western blot) is “inhibit the up-regulation of NF-κB p65”. In data set [4] (KB 1.25, 2.5 and 5 mg/kg every 8 h for 3 days), the “survival rates, multiple dose” value is “improve survival rates”. Moreover, the “mortality rate in 7 days, single dose” value in data set [4] (KB 15, 30 and 60 mg/kg 5 min after heat-killed E. coli) was “decreased with the increasing doses of KB”. In data set [4] (setting [5]), the “protective effect, KB given after 2 h (4, 6 and 8 h)” value is given as “no longer has a significant protective effect”; the “survival rate, KB given 2 h after heat-killed E. coli” value was “still can increase the survival rate”.
